By AC50 is commonly meant the concentration at which the activity in the assay is half-maximal.

Some results are limits rather than exact numbers.

For the assay, the target named is T1, human PAH with the R408W mutation (Homo sapiens, UniProt P00439, R408W).
T1 construct: expressed in transfected cells
T1 sequence (P00439 1-452 R408W): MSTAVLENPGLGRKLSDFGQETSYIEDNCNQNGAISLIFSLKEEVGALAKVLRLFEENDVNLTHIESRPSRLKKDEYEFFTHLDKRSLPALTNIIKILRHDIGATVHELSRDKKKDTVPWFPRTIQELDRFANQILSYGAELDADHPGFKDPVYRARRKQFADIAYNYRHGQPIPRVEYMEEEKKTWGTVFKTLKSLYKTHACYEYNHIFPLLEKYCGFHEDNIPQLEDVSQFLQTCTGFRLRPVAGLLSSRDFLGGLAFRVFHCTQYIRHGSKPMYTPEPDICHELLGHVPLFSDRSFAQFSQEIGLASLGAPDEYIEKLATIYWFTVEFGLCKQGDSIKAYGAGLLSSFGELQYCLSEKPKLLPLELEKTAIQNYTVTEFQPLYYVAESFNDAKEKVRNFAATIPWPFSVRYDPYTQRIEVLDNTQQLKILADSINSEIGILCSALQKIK
The experiment in a line: Cell Based Phenylalanine Flux Assay.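 Also: Ten-point dose curve from 2-fold serial dilutions, run in duplicate at 0.5% DMSO final, tracer step used 20 µM sepiapterin and 800 µM labeled phenylalanine.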 Conditions: A375 cells expressing human R408W PAH; 24 hrs with compound, then sepiapterin and 13C9,15N-Phenylalanine for 4 hours; 13C-Tyrosine by LC-MS; average where tested multiple times; read-out: AC50.
On to `Clc1cccn2nc([C@H]3c4nc[nH]c4CCN3c3nnc(-c4cnccn4)o3)cc12` [Example 2160, (R)-2-(4-(4-chloropyrazolo [1,5-a]pyridin-2-yl)-1,4,6,7-tetrahydro-5H-imidazo[4,5-c]pyridin-5-yl)-5-(pyrazin-2-yl)-1,3,4-oxadiazole], for which the AC50 is greater than 5000 nM.
Consider `Clc1cccn2nc([C@@H]3c4nc[nH]c4CCN3c3nnc(-c4cnccn4)o3)cc12` [Example 2161, (S)-2-(4-(4-chloropyrazolo [1,5-a]pyridin-2-yl)-1,4,6,7-tetrahydro-5H-imidazo[4,5-c]pyridin-5-yl)-5-(pyrazin-2-yl)-1,3,4-oxadiazole], for which the AC50 is less than 500 nM.
Then `FC(F)c1nnc(N2CCc3[nH]cnc3[C@H]2c2cc3c(C4CC4)cccn3n2)o1` [Example 2167], with less than 500 nM; and `CC(C)c1cccn2nc([C@H]3c4nc[nH]c4CCN3c3nnc(-c4cnccn4)o3)cc12` [Example 2176, (R)-2-(4-(4-isopropylpyrazolo [1,5-a]pyridin-2-yl)-1,4,6,7-tetrahydro-5H-imidazo [4,5-c]pyridin-5-yl)-5-(pyrazin-2-yl)-1,3,4-oxadiazole], with greater than 5000 nM.
With `CC(C)c1cccn2nc([C@@H]3c4nc[nH]c4CCN3c3nnc(-c4cnccn4)o3)cc12` [Example 2177, (S)-2-(4-(4-isopropylpyrazolo [1,5-a]pyridin-2-yl)-1,4,6,7-tetrahydro-5H-imidazo [4,5-c]pyridin-5-yl)-5-(pyrazin-2-yl)-1,3,4-oxadiazole], the AC50 was 500 to 1000 nM.
For `Fc1cccn2nc([C@@H]3c4nc[nH]c4CCN3c3nnc(-c4ccncn4)o3)cc12` [Example 2178, (S)-2-(4-(4-fluoropyrazolo [1,5-a]pyridin-2-yl)-1,4,6,7-tetrahydro-5H-imidazo[4,5-c]pyridin-5-yl)-5-(pyrimidin-4-yl)-1,3,4-oxadiazole], the AC50 lay in the range of 500 to 1000 nM.
As for `Clc1cccn2nc([C@@H]3c4nc[nH]c4CCN3c3nnc(-c4ccncn4)o3)cc12` [Example 2182, (S)-2-(4-(4-chloropyrazolo [1,5-a]pyridin-2-yl)-1,4,6,7-tetrahydro-5H-imidazo[4,5-c]pyridin-5-yl)-5-(pyrimidin-4-yl)-1,3,4-oxadiazole], the concentration at half-maximal activity (AC50) is 500 to 1000 nM.
Regarding `Cc1cccn2nc([C@H]3c4nc[nH]c4CCN3c3nnc(C4(C)CC4)o3)cc12` [Example 2188, (R)-2-(1-methylcyclopropyl)-5-(4-(4-methylpyrazolo[1,5-a]pyridin-2-yl)-1,4,6,7-tetrahydro-5H-imidazo[4,5-c]pyridin-5-yl)-1,3,4-oxadiazole], the concentration at half-maximal activity (AC50) is greater than 5000 nM.
Under `Cc1ncccc1-c1nnc(N2CCc3[nH]cnc3[C@H]2c2cc3c(C)cccn3n2)o1` [Example 2206, (S)-2-(4-(4-methylpyrazolo [1,5-a]pyridin-2-yl)-1,4,6,7-tetrahydro-5H-imidazo [4,5-c]pyridin-5-yl)-5-(2-methylpyridin-3-yl)-1,3,4-oxadiazole] stands 500 to 1000 nM; under `Cc1ncccc1-c1nnc(N2CCc3[nH]cnc3[C@H]2c2cc3c(C(F)(F)F)cccn3n2)o1` [Example 2208, (S)-2-(2-methylpyridin-3-yl)-5-(4-(4-(trifluoromethyl)pyrazolo [1,5-a]pyridin-2-yl)-1,4,6,7-tetrahydro-5H-imidazo [4,5-c]pyridin-5-yl)-1,3,4-oxadiazole], 500 to 1000 nM; under `Cc1ncccc1-c1nnc(N2CCc3[nH]cnc3[C@H]2c2cc3c(C(F)F)cccn3n2)o1` [Example 2210, (S)-2-(4-(4-(difluoromethyl)pyrazolo[1,5-a]pyridin-2-yl)-1,4,6,7-tetrahydro-5H-imidazo [4,5-c]pyridin-5-yl)-5-(2-methylpyridin-3-yl)-1,3,4-oxadiazole], 1000 to 5000 nM.
In the case of `Cc1ncccc1-c1nnc(N2CCc3[nH]cnc3[C@H]2c2cc3c(F)cccn3n2)o1` [Example 2212, (S)-2-(4-(4-fluoropyrazolo [1,5-a]pyridin-2-yl)-1,4,6,7-tetrahydro-5H-imidazo [4,5-c]pyridin-5-yl)-5-(2-methylpyridin-3-yl)-1,3,4-oxadiazole], the AC50 was less than 500 nM.
Regarding `Cc1ncccc1-c1nnc(N2CCc3[nH]cnc3[C@@H]2c2cc3c(F)cccn3n2)o1` [Example 2213, (R)-2-(4-(4-fluoropyrazolo [1,5-a]pyridin-2-yl)-1,4,6,7-tetrahydro-5H-imidazo [4,5-c]pyridin-5-yl)-5-(2-methylpyridin-3-yl)-1,3,4-oxadiazole], the AC50 is greater than 5000 nM.
As for `Cc1cccn2nc([C@@H]3c4nc[nH]c4CCN3C(=O)c3nc(C(F)F)nn3C)cc12` [Example 2214, (S)-(3-(difluoromethyl)-1-methyl-1H-1,2,4-triazol-5-yl)(4-(4-methylpyrazolo[1,5-a]pyridin-2-yl)-6,7-dihydro-1H-imidazo[4,5-c]pyridin-5(4H)-yl)methanone], the half-maximal activity concentration (AC50) was less than 500 nM.
Turning to `CC(C)(O)c1ncc(C(=O)N2CCc3[nH]cnc3[C@H]2c2cc3c(Cl)cccn3n2)o1` [Example 2216], the AC50 fell in the range of 500 to 1000 nM.
With `Cc1nnc(C(=O)N2CCc3[nH]cnc3[C@H]2c2cc3c(OC(F)(F)F)cccn3n2)o1` [Example 2218, (S)-(5-methyl-1,3,4-oxadiazol-2-yl)(4-(4-(trifluoromethoxy)pyrazolo [1,5-a]pyridin-2-yl)-6,7-dihydro-1H-imidazo[4,5-c]pyridin-5(4H)-yl)methanone], the AC50 is 1000 to 5000 nM.
`Cc1nnc(C(=O)N2CCc3[nH]cnc3[C@@H]2c2cc3c(OC(F)(F)F)cccn3n2)o1` [Example 2219, (R)-(5-methyl-1,3,4-oxadiazol-2-yl)(4-(4-(trifluoromethoxy)pyrazolo [1,5-a]pyridin-2-yl)-6,7-dihydro-1H-imidazo[4,5-c]pyridin-5(4H)-yl)methanone]: the AC50 is greater than 5000 nM.
For the compound `CC1(c2nnc(N3CCc4[nH]cnc4[C@@H]3c3cc4c(C5CC5)cccn4n3)o2)CC1` [Example 2226, (R)-2-(4-(4-cyclopropylpyrazolo [1,5-a]pyridin-2-yl)-1,4,6,7-tetrahydro-5H-imidazo [4,5-c]pyridin-5-yl)-5-(1-methylcyclopropyl)-1,3,4-oxadiazole], the AC50 was greater than 5000 nM.
For the compound `CC1(c2nnc(N3CCc4[nH]cnc4[C@H]3c3cc4c(C5CC5)cccn4n3)o2)CC1` [Example 2227, (S)-2-(4-(4-cyclopropylpyrazolo [1,5-a]pyridin-2-yl)-1,4,6,7-tetrahydro-5H-imidazo [4,5-c]pyridin-5-yl)-5-(1-methylcyclopropyl)-1,3,4-oxadiazole], the AC50 lay in the range of 500 to 1000 nM.
Take `CC(C)c1cccn2nc([C@H]3c4nc[nH]c4CCN3c3nnc(C4(C)CC4)o3)cc12` [Example 2228, (R)-2-(4-(4-isopropylpyrazolo [1,5-a]pyridin-2-yl)-1,4,6,7-tetrahydro-5H-imidazo [4,5-c]pyridin-5-yl)-5-(1-methylcyclopropyl)-1,3,4-oxadiazole]: the AC50 is greater than 5000 nM.
On to `CC(C)c1cccn2nc([C@@H]3c4nc[nH]c4CCN3c3nnc(C4(C)CC4)o3)cc12` [Example 2229, (S)-2-(4-(4-isopropylpyrazolo [1,5-a]pyridin-2-yl)-1,4,6,7-tetrahydro-5H-imidazo [4,5-c]pyridin-5-yl)-5-(1-methylcyclopropyl)-1,3,4-oxadiazole], for which the AC50 is less than 500 nM.
For the compound `CC(C)c1cccn2nc([C@H]3c4nc[nH]c4CCN3c3nnc(C(C)(F)F)o3)cc12` [Example 2230, (R)-2-(1,1-difluoroethyl)-5-(4-(4-isopropylpyrazolo[1,5-a]pyridin-2-yl)-1,4,6,7-tetrahydro-5H-imidazo[4,5-c]pyridin-5-yl)-1,3,4-oxadiazole], the AC50 is greater than 5000 nM.
As for `CC(F)(F)c1nnc(N2CCc3[nH]cnc3[C@@H]2c2cc3c(Cl)cccn3n2)o1` [Example 2232, (R)-2-(4-(4-chloropyrazolo [1,5-a]pyridin-2-yl)-1,4,6,7-tetrahydro-5H-imidazo [4,5-c]pyridin-5-yl)-5-(1,1-difluoroethyl)-1,3,4-oxadiazole], the AC50 was greater than 5000 nM.
For `CC(F)(F)c1nnc(N2CCc3[nH]cnc3[C@H]2c2cc3c(Cl)cccn3n2)o1` [Example 2233, (S)-2-(4-(4-chloropyrazolo [1,5-a]pyridin-2-yl)-1,4,6,7-tetrahydro-5H-imidazo [4,5-c]pyridin-5-yl)-5-(1,1-difluoroethyl)-1,3,4-oxadiazole], the AC50 was less than 500 nM.
As to `Cc1ncccc1-c1nnc(N2CCc3[nH]cnc3[C@@H]2c2cc3c(Cl)cccn3n2)o1` [Example 2237, (R)-2-(4-(4-chloropyrazolo [1,5-a]pyridin-2-yl)-1,4,6,7-tetrahydro-5H-imidazo [4,5-c]pyridin-5-yl)-5-(2-methylpyridin-3-yl)-1,3,4-oxadiazole], the AC50 was greater than 5000 nM.
Turning to `O=C(c1cnc(-c2cnccn2)o1)N1CCc2[nH]cnc2[C@H]1c1cc2c(C(F)F)cccn2n1` [Example 2242, (S)-(4-(4-(difluoromethyl)pyrazolo[1,5-a]pyridin-2-yl)-1,4,6,7-tetrahydro-5H-imidazo [4,5-c]pyridin-5-yl)(2-(pyrazin-2-yl)oxazol-5-yl) methanone], the concentration at half-maximal activity (AC50) was in the range of 500 to 1000 nM.
Turning to `O=C(c1cnc(-c2cnccn2)o1)N1CCc2[nH]cnc2[C@@H]1c1cc2c(C(F)F)cccn2n1` [Example 2243], the AC50 was greater than 5000 nM.
Take `FC(F)c1nnc(N2CCc3[nH]cnc3[C@H]2c2cc3c(OC(F)(F)F)cccn3n2)o1` [Example 2251, (S)-2-(difluoromethyl)-5-(4-(4-(trifluoromethoxy)pyrazolo [1,5-a]pyridin-2-yl)-1,4,6,7-tetrahydro-5H-imidazo [4,5-c]pyridin-5-yl)-1,3,4-oxadiazole]: the AC50 is less than 500 nM.

The values above are taken from patent US12673961B2 (Agios Pharmaceuticals, Inc., priority 2022, dated 2026).
